According to PubChem BioAssay AID192 (DTP/NCI, 2004):
Values joined by “and” are separate entries in the source; they are usually repeats but may differ in a detail not shown here. Equal entries are not always repeated. Inconclusive results and toxic doses are left out.

Test system: BDF1 mice, B16 melanoma ip, median survival T/C
Test: NCI In Vivo Anticancer Drug Screen. Data for tumor model B16 Melanoma (intraperitoneal) in B6D2F1 (BDF1) mice
Details: endpoint: median survival time, higher = longer survival
Method in brief: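 Antitumor activity is assessed in mice bearing a transplanted tumor, with survival or tumor size compared against vehicle-dosed controls and expressed as T/C.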

[1] = dose: 12.5 mg/kg/injection, schedule: Q01DX009 (ip), vehicle: saline
[2] = dose: 25.0 mg/kg/injection, schedule: Q01DX009 (ip), vehicle: saline
[3] = dose: 50.0 mg/kg/injection, schedule: Q01DX009 (ip), vehicle: saline
[4] = dose: 50.0 mg/kg/injection, schedule: Q01DX009 (ip), vehicle: saline with Tween-80
[5] = dose: 100.0 mg/kg/injection, schedule: Q01DX009 (ip), vehicle: saline with Tween-80
[6] = dose: 200.0 mg/kg/injection, schedule: Q01DX009 (ip), vehicle: saline with Tween-80

With `CCN(CCCCOC(=O)c1ccc(OC)c(OC)c1)C(C)Cc1ccc(OC)cc1` (stereo unspecified) the T/C (dose: 1.32 mg/kg/injection, schedule: Q01DX009 (ip), vehicle: saline) was 93 % of control, the T/C (dose: 2.65 mg/kg/injection, schedule: Q01DX009 (ip), vehicle: saline) was 98 % of control and the T/C (dose: 4.68 mg/kg/injection, schedule: Q04DX003 (ip), vehicle: saline) was 116 % of control. The T/C (dose: 5.31 mg/kg/injection, schedule: Q01DX009 (ip), vehicle: saline) was 105 % of control and 107 % of control, the T/C (dose: 9.37 mg/kg/injection, schedule: Q04DX003 (ip), vehicle: saline) was 111 % of control and the T/C (dose: 10.6 mg/kg/injection, schedule: Q01DX009 (ip), vehicle: saline) was 88 % of control. For the same compound, the T/C (dose: 10.62 mg/kg/injection, schedule: Q01DX009 (ip), vehicle: saline) was 88 % of control, the T/C (dose: 18.75 mg/kg/injection, schedule: Q04DX003 (ip), vehicle: saline) was 119 % of control and the T/C (dose: 21.2 mg/kg/injection, schedule: Q01DX009 (ip), vehicle: saline) was 90 % of control. The T/C (dose: 21.25 mg/kg/injection, schedule: Q01DX009 (ip), vehicle: saline) was 91 % of control and 109 % of control, the T/C (dose: 37.5 mg/kg/injection, schedule: Q04DX003 (ip), vehicle: saline) was 113 % of control and the T/C (dose: 42.5 mg/kg/injection, schedule: Q01DX009 (ip), vehicle: saline) was 95 % of control and 101 % of control. For the same compound, the T/C (dose: 75.0 mg/kg/injection, schedule: Q04DX003 (ip), vehicle: saline) was 119 % of control, the T/C (dose: 85.0 mg/kg/injection, schedule: Q01DX009 (ip), vehicle: saline) was 87 % of control and the T/C (dose: 110.0 mg/kg/injection, schedule: Q04DX003 (ip), vehicle: saline) was 112 % of control.

With `COCC1OC(OC2OCC3OC4(OCC(O)(C(C)OC)C5OCOC54)OC3C2OC)C(OC)C(O)C1OC1OC(C)C(OC)C(OC2OC(C)C3OC4(CC(O)C(OC5CC(OC6CC(C)([N+](=O)[O-])C(OC)C(C)O6)C(OC(=O)c6c(C)c(Cl)c(O)c(Cl)c6OC)C(C)O5)C(C)O4)OC3(C)C2O)C1O` (stereo unspecified) the T/C (dose: 6.25 mg/kg/injection, schedule: Q01DX009 (ip), vehicle: saline) was 97 % of control, the T/C [1] was 95 % of control and the T/C [2] was 100 % of control. The T/C [3] was 101 % of control.

In the case of `Cc1noc(C)c1CON`, the T/C (dose: 12.5 mg/kg/injection, schedule: Q04DX003 (ip), vehicle: saline) is reported as 118 % of control, the T/C (dose: 25.0 mg/kg/injection, schedule: Q04DX003 (ip), vehicle: saline) is reported as 118 % of control and the T/C (dose: 50.0 mg/kg/injection, schedule: Q04DX003 (ip), vehicle: saline) is reported as 123 % of control.

In the case of `O=[N+]([O-])c1ccc(O)c(N=Cc2ccc(C=Nc3cc([N+](=O)[O-])ccc3O)cc2)c1`, the T/C (dose: 75.0 mg/kg/injection, schedule: Q01DX009 (ip), vehicle: Klucel (hydroxypropylcellulose) (HPC)) is reported as 89 % of control and the T/C (dose: 150.0 mg/kg/injection, schedule: Q01DX009 (ip), vehicle: Klucel (hydroxypropylcellulose) (HPC)) is reported as 93 % of control.

In the case of `O=C(O)CC(NC(=O)CP(=O)(O)O)C(=O)O.[NH-]C1CCCCC1[NH-].[Pt+2]` (stereo unspecified), the T/C (dose: 0.4 mg/kg/injection, schedule: Q01DX009 (ip), vehicle: dextrose) is reported as 122 % of control, the T/C (dose: 0.78 mg/kg/injection, schedule: Q01DX009 (ip), vehicle: dextrose) is reported as 154 % of control and the T/C (dose: 1.56 mg/kg/injection, schedule: Q01DX009 (ip), vehicle: dextrose) is reported as 165 % of control. For the same compound, the T/C (dose: 3.0 mg/kg/injection, schedule: Q01DX009 (ip), vehicle: dextrose) was 123 % of control and the T/C (dose: 3.2 mg/kg/injection, schedule: Q01DX009 (ip), vehicle: dextrose) was 163 % of control.

`COc1ccc(CC2C(=O)NC(C)C(=O)N(C)C3C(=O)N(C)C(Cc4ccc(O)c(c4)Oc4ccc(cc4)C3O)C(=O)NC(C)C(=O)NC(C)C(=O)N2C)cc1` (stereo unspecified) was tested, and the T/C (dose: 0.5 mg/kg/injection, schedule: Q01DX009 (ip), vehicle: saline with Tween-80) was 152 % of control and the T/C (dose: 125.0 micrograms/kg/injection, schedule: Q01DX009 (ip), vehicle: saline with Tween-80) was 118 % of control.

For `Cc1cc(=O)n2c3c(cc(C#N)cc13)OC2`, the T/C (dose: 100.0 mg/kg/injection, schedule: Q04DX003 (ip), vehicle: Klucel (hydroxypropylcellulose) (HPC)) was 92 % of control, the T/C (dose: 200.0 mg/kg/injection, schedule: Q04DX003 (ip), vehicle: Klucel (hydroxypropylcellulose) (HPC)) was 95 % of control and the T/C (dose: 400.0 mg/kg/injection, schedule: Q04DX003 (ip), vehicle: Klucel (hydroxypropylcellulose) (HPC)) was 92 % of control.

`OC(c1ccccc1)(c1ccccc1)C1CC1c1ccncc1` (stereo unspecified) was tested, and the T/C [1] was 113 % of control, the T/C [2] was 95 % of control and the T/C [3] was 102 % of control. The T/C (dose: 100.0 mg/kg/injection, schedule: Q01DX009 (ip), vehicle: saline) was 107 % of control.

With `Cc1cc(C(C)(CC(C)C)c2ccc(O)c(C)c2)ccc1O` the T/C (dose: 25.0 mg/kg/injection, schedule: Q01DX009 (ip), vehicle: saline with Tween-80) was 107 % of control and the T/C [4] was 94 % of control.

`CC(C)(C)c1cc([N+](=O)[O-])cc(C(C)(C)C)c1O` was tested, and the T/C (dose: 25.0 mg/kg/injection, schedule: Q01DX009 (ip), vehicle: Klucel (hydroxypropylcellulose) (HPC)) was 95 % of control, the T/C (dose: 50.0 mg/kg/injection, schedule: Q01DX009 (ip), vehicle: Klucel (hydroxypropylcellulose) (HPC)) was 93 % of control and the T/C (dose: 100.0 mg/kg/injection, schedule: Q01DX009 (ip), vehicle: Klucel (hydroxypropylcellulose) (HPC)) was 95 % of control.

In the case of `O=C1C(N2CCOCC2)=C(N2CC2)C(=O)C(N2CCOCC2)=C1N1CC1`, the T/C (dose: 0.75 mg/kg/injection, schedule: Q01DX009 (ip), vehicle: saline) is reported as 118 % of control, the T/C (dose: 1.5 mg/kg/injection, schedule: Q01DX009 (ip), vehicle: saline) is reported as 124 % of control and the T/C (dose: 3.0 mg/kg/injection, schedule: Q01DX009 (ip), vehicle: saline) is reported as 120 % of control. The T/C (dose: 6.0 mg/kg/injection, schedule: Q01DX009 (ip), vehicle: saline) was 106 % of control.

In the case of `COc1ccc(C2=C(c3ccccc3)C(c3ccccc3)=C(c3ccc(OC)cc3)C2=O)cc1`, the T/C [4] is reported as 94 % of control, the T/C [5] is reported as 95 % of control and the T/C [6] is reported as 95 % of control. For the same compound, the T/C (dose: 400.0 mg/kg/injection, schedule: Q01DX009 (ip), vehicle: saline with Tween-80) was 94 % of control.

For `CCNCCC#N`, the T/C (dose: 80.0 mg/kg/injection, schedule: Q01DX009 (ip), vehicle: saline) was 113 % of control, the T/C (dose: 160.0 mg/kg/injection, schedule: Q01DX009 (ip), vehicle: saline) was 119 % of control and the T/C (dose: 320.0 mg/kg/injection, schedule: Q01DX009 (ip), vehicle: saline) was 105 % of control.

For `CC(C)C(Br)C(=O)NC(Cc1ccccc1)C(=O)O` (stereo unspecified), the T/C [5] was 104 % of control and the T/C [6] was 95 % of control.
